Source: publication PMC2818678 (Bioorganic & medicinal chemistry, 2009)

Columns and labels:
human A3AR = biological target: T1, human A3AR (Homo sapiens, UniProt P0DMS8); test: Inhibition of forskolin-stimulated cAMP production in A3AR-expressing CHO cells; assay type: cell-based; details: inhibition of forskolin-stimulated cAMP at 10 μM, NECA as reference standard
T1 sequence (P0DMS8 1-318): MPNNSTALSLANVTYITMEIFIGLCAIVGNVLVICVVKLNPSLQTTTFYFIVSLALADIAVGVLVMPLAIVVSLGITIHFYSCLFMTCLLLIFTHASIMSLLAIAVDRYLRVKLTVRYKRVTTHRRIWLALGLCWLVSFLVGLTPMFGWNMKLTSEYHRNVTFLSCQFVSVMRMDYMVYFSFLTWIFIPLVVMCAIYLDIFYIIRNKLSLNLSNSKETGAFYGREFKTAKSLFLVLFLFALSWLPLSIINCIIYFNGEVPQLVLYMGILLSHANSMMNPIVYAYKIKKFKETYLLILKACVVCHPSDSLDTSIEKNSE

[1] = biological target: T2, human A1 adenosine receptor (hA1AR) (Homo sapiens, UniProt P30542); details: at 10 μM; [3H]36; CHO cells expressing hA1AR; ref Tosh et al.[9]; cited from earlier work
T2 sequence (P30542 1-326): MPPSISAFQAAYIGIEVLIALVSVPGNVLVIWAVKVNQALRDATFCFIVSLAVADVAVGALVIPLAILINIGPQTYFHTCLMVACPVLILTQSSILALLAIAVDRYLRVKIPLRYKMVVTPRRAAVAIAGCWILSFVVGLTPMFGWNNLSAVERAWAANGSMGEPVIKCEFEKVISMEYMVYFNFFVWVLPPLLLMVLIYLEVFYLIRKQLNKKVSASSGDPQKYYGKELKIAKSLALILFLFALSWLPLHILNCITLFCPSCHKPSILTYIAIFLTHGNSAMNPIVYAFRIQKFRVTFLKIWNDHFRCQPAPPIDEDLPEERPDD

[2] = biological target: T3, human A3 adenosine receptor (hA3AR) (Homo sapiens, UniProt P0DMS8); test: Radioligand binding at human A3AR; details: for Selectivity for hA3AR in comparison to A1 and A2AARs (in words): inhibition curves, Figure 1; for Affinity at the A3AR (in words): binding
T3 sequence (P0DMS8 1-318): T1 sequence (P0DMS8 1-318)

[3] = biological target: human A2A adenosine receptor (hA2AAR) (Homo sapiens, UniProt P29274); details: at 10 μM; [3H]37; HEK293 cells expressing hA2AAR; ref Tosh et al.[9]; cited from earlier work
[4] = biological target: T2, human A1 adenosine receptor (hA1AR); test: Radioligand binding at human A1AR; details: read-out: % inhibition of radioligand binding, A1

Chain of human A2A adenosine receptor (hA2AAR) (P29274 whole entry): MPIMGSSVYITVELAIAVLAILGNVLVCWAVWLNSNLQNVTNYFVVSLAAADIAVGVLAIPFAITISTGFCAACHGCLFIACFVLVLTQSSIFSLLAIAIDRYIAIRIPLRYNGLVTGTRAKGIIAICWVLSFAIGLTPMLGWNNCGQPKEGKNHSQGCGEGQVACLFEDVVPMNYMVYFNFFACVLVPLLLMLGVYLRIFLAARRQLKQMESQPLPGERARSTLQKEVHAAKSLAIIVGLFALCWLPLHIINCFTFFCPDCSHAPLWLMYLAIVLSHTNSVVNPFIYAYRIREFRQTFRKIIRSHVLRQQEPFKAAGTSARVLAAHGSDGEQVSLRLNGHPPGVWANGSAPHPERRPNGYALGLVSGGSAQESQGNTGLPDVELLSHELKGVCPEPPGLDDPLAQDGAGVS

Q: With `CNC(=O)[C@H]1O[C@@H](n2cnc3c(NCc4cccc(I)c4)ncnc32)[C@H](O)[C@@H]1O` [IB-MECA, N^6-(3-iodobenzyl)-5′-N-methylcarboxamidoadenosine, reference compound] as the compound, how does the “A3AR agonist efficacy (in words)” value (human A3AR) read?
A: full agonists

Q: With `CCN1\C(=C/C=C/C=C/C2=[N+](CCCCCC(=O)NCCNC(=O)CCC#Cc3nc(NCc4cccc(Cl)c4)c4ncn([C@H]5[C@H](O)[C@H](O)[C@]6(C(=O)NC)C[C@H]56)c4n3)c3ccc(S(=O)(=O)[O-])cc3C2(C)C)C(C)(C)c2cc(S(=O)(=O)O)ccc21` [Compound 1] as the compound, how does the “% inhibition of radioligand binding, A1” value [1] read?
A: (36±3%)

Q: For `CNC(=O)[C@@]12C[C@@H]1[C@@H](n1cnc3c(NCc4cccc(Cl)c4)nc(C#CCCCCc4cn(C56CC7CC(CC(C7)C5)C6)nn4)nc31)[C@H](O)[C@@H]2O` [Compound 18, (1S,2R,3S,4R,5S)-6-(3-Chlorobenzylamino)-(2-(6-(1-(adamantyl)-1H-1,2,3-triazol-4-yl)hex-1-ynyl)-9H-purin-9-yl)-2′,3′-dihydroxybicyclo[3.1.0]hexane-1′-carboxylic acid N-methylamide], which “Selectivity for hA3AR in comparison to A1 and A2AARs (in words)” value [2] is on record?
A: highly selective

Q: What about the “A3AR agonist efficacy (in words)” value (human A3AR) of the same compound?
A: partial agonist

Q: What does the source list for `CNC(=O)[C@@]12C[C@@H]1[C@@H](n1cnc3c(NCc4cccc(Cl)c4)nc(C#CCCC(=O)NCCNC(=O)CCCCC4SCC5NC(=O)NC54)nc31)[C@H](O)[C@@H]2O` (some centres unmarked) [Compound 2]?
A: % inhibition of radioligand binding, A2A [3]: (51±2%); % inhibition of radioligand binding, A1 [1]: (1±1%)

Q: With `CNC(=O)[C@@]12C[C@@H]1[C@@H](n1cnc3c(NCc4cccc(Cl)c4)nc(C#CCCCCc4cn(CCCCCCNC(=O)c5ccc(-c6c7ccc(=N)c(S(=O)(=O)O)c-7oc7c(S(=O)(=O)O)c(N)ccc67)c(C(=O)O)c5)nn4)nc31)[C@H](O)[C@@H]2O` [Compound 23] as the compound, how does the inhibition at 10 µM [4] read?
A: 0%

Q: What does the source list for `CNC(=O)[C@@]12C[C@@H]1[C@@H](n1cnc3c(NCc4cccc(Cl)c4)nc(C#CCCCCc4cn(CCNC(C)=O)nn4)nc31)[C@H](O)[C@@H]2O` [Compound 15, (1S,2R,3S,4R,5S)-6-(3-Chlorobenzylamino)-(2-(6-(1-(4-acetamidoethyl)-1H-1,2,3-triazol-4-yl)hex-1-ynyl)-9H-purin-9-yl)-2′,3′-dihydroxybicyclo[3.1.0]hexane-1′-carboxylic acid N-methylamide]?
A: Fold more potent in A3AR binding than higher butyl homologue 17 ([2]; compared with 17): 4 fold; Selectivity for hA3AR in comparison to A1 and A2AARs (in words) [2]: highly selective; A3AR agonist efficacy (in words) (human A3AR): highly efficacious agonists

Q: With `CNC(=O)[C@@]12C[C@@H]1[C@@H](n1cnc3c(NCc4cccc(Cl)c4)nc(C#CCCCCc4cn(CCCCN)nn4)nc31)[C@H](O)[C@@H]2O` [Compound 16, (1S,2R,3S,4R,5S)-6-(3-Chlorobenzylamino)-(2-(6-(1-(4-aminobutyl)-1H-1,2,3-triazol-4-yl)hex-1-ynyl)-9H-purin-9-yl)-2′,3′-dihydroxybicyclo[3.1.0]hexane-1′-carboxylic acid N-methylamide] as the compound, how does the “Affinity at the A3AR (in words)” value [2] read?
A: only moderate affinity

Q: For `CNC(=O)[C@@]12C[C@@H]1[C@@H](n1cnc3c(NCc4cccc(Cl)c4)nc(C#CCCC(=O)NCCNC(=O)CCCCCNC(=O)CCCCC4SCC5NC(=O)NC54)nc31)[C@H](O)[C@@H]2O` (some centres unmarked) [Compound 3], which “% inhibition of radioligand binding, A2A” value [3] is on record?
A: (47±11%)

Q: What about the “% inhibition of radioligand binding, A1” value [1] of the same compound?
A: (12±4%)

Q: Which “Affinity at the A3AR (in words)” value [2] does the source give for `CNC(=O)[C@@]12C[C@@H]1[C@@H](n1cnc3c(NCc4cccc(Cl)c4)nc(C#CCCCCc4cn(Cc5ccc(-n6sccc6=O)cc5)nn4)nc31)[C@H](O)[C@@H]2O` [Compound 19] here?
A: only moderate affinity
